In patent US12616713B2, “Methods for enhancing vascular density” (priority 2016, dated 2026):

Tested on: MLECs isolated from WT and ESKO mice
Assay: Transwell migration assay, MLECs
Assay type: cell-based, mouse
Details: WT versus ESKO MLECs, C2C12 CM, NMN 0.5 mM

NC(=O)c1ccc[n+]([C@@H]2O[C@H](COP(=O)([O-])O)[C@@H](O)[C@H]2O)c1 [NMN, nicotinamide mononucleotide]
ability of NMN to stimulate cell migration, dependence on SIRT1: SIRT1-dependent
